Laboratory results published in patent US20100197591A1, “4-AMINO-7,8-DIHYDROPYRIDO[4,3-d]PYRIMIDIN-5(6H)-ONE DERIVATIVES” (pfizer Inc, priority 2009, published 2010).

Molecular target: T1, Human full-length diacylglycerol:acylCoA acyltransferase 1 (DGAT-1) (Homo sapiens, UniProt O75907)
T1 construct: Human full-length diacylglycerol:acylCoA acyltransferase 1 (DGAT-1) was expressed in Sf9 insect cells; made in house; host or cells: Sf9 insect cells (baculovirus); crude membrane/microsome fraction
T1 sequence (O75907 1-488): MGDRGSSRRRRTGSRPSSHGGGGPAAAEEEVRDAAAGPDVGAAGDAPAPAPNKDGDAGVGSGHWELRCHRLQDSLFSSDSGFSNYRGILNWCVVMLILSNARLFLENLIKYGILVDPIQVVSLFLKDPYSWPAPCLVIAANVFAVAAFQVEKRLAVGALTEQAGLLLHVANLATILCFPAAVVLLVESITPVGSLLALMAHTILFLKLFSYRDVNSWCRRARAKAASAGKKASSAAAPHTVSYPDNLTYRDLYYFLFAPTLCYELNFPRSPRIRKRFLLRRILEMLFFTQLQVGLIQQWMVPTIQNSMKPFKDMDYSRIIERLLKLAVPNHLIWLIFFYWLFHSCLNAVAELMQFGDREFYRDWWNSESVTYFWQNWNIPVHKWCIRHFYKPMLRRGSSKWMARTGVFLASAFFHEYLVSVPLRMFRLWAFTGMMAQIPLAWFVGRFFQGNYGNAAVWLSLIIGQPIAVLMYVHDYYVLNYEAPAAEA
Assay: DGAT-1 Reduced Microsome Multidose Assay, G7329F Human IC50
Type: biochemical
Settings: crude membrane fraction of Sf9 cells expressing human DGAT-1; [14C]decanoylCoA; apparent IC50, average where tested more than once
Experimental: Human full-length diacylglycerol:acylCoA acyltransferase 1 (DGAT-1) was expressed in Sf9 insect cells which are then lysed and a crude membrane fraction (105,000×g pellet) was prepared. The DGAT-1 gene is a human DGAT-1 gene described in J Biol Chem 273:26765 (1998) and U.S. Pat. No. 6,100,077.
In vitro inhibition of DGAT-1 was measured using a modification, further described below, of the assay methodology described in U.S. Pat. No. 6,994,956 B2.
The cells were cultured as follows. Sf9 cells (20 L) were infected with 4 mL of DGAT-1 Baculovirus Infected Insect Cells (BIIC) for 72 hours in a Wave Bioreactor System 20/50P (Wave Biotec/GE Healthcare).
Crude DGAT-1 microsomes were prepared as follows. Cell pellets were washed once with ice-cold Dulbecco's phosphate-buffered saline. Cells were collected in tabletop centrifuge (Beckman GS-6KR), 15 minutes, 2000×g, 4° C. Twenty (20) mL of ice-cold Microsome Buffer (MB) was added per 5 g of cell pellet. The suspension was passed through a microfluidizer 3 times (18K psi). The lysate was transferred to centrifuge tubes and centrifuged for 20 minutes at 5000×g (Beckman-Coulter, Inc. Allegra® 64R High-Speed Refrigerated Benchtop Centrifuge, F0650 rotor) at 4° C. The supernatant was transferred to ultracentrifuge tubes and centrifuged at 125,000×g for 1 hour in a Beckman Ti-45 rotor, 4° C. The supernatant fluid was discarded. The pellet was resuspended in 70 mL of MB by sonication. The microsome concentration was determined using Bio-Rad Protein DC Protein Assay. The microsomes were filter sterilized with a 0.22 μm filter. The samples were portioned, flash frozen and stored at −80° C.
The Microsome Buffer, used for microsome preparation, was prepared by conventional means and contained 125 mM sucrose, 3 mM imidazole, 0.2 μg/mL aprotinin, 0.2 μg/mL leupeptin and 5 mM dithiothreitol (Cleland's reagent), DGAT-1 activity was measured in 384-well format in a total assay volume of 25 μl that contained, Hepes buffer (50 mM, pH 7.5), MgCl2 (10 mM), bovine serum albumin (0.6 mg/ml), [^14C]decanoylCoA (20 μM, 58 Ci/mol) and membranes (25 μg/ml) into which 1,2 dioleoyl-sn-glycerol (75 μM) in acetone has already been incorporated. Inhibitors in DMSO were pre-incubated with membranes before initiating the DGAT-1 reaction by the addition of decanoylCoA. […] The DMSO concentration was 2.5%. The inhibitors were present at a range of eight concentrations to generate an apparent IC50 for each compound. The eight inhibitor concentration employed ranged from 10 μM to 3 nM (from high to low concentration). Specifically, the eight concentrations used were 10 μM, 3 μM, 1 μM, 300 nM, 100 nM, 30 nM, 10 nM and 3 nM.
Reaction mixtures were neutralized by the addition of 15 μl of tris(hydroxy-methyl)aminomethane (1M, pH 8.0) and then mixed by trituration with 37.5 μl of Microscint™-E (Perkin Elmer). Plates contents were allowed to partition for 15 to 30 min before ^14C was measured in a scintillation spectrometer (Wallac Microbeta Trilux 1450-030 liquid scintillation counter 12 detector in the top-count DPM mode). Percent inhibition of test compounds was computed as […].
Four separate assays were performed using 4 different methods of analysis. The method of analysis of Assay 1 was the same as Assay 4 (described above) except microsomes were utilized at 25 μg/mL instead of 5 μg/mL. The method of analysis of Assay 2 was the same as Assay 4 (described above) except eleven (11) concentrations of inhibitor were employed instead of eight (8). The method of analysis of Assay 3 was the same as Assay 2 except the compounds were serially diluted in a different laboratory.
Where this DGAT-1 inhibition assay was performed on a compound more than once, an average is provided for that compound.

SMILES | IC50
CNC(=O)C(C)(C)c1ccc(N2CCc3nc(OC)nc(N)c3C2=O)cc1 [Example 3G, 2-[4-(4-amino-2-methoxy-5-oxo-7,8-dihydropyrido[4,3-d]pyrimidin-6(5H)-yl)phenyl]-N,2-dimethylpropanamide] | 126 nM
COc1nc(N)c2c(n1)CCN(c1ccc(C(C)(C)C(=O)N(C)C)cc1)C2=O [Example 3H, 2-[4-(4-amino-2-methoxy-5-oxo-7,8-dihydropyrido[4,3-d]pyrimidin-6(5H)-yl)phenyl]-N,N,2-trimethylpropanamide] | 260 nM
COc1nc(N)c2c(n1)CCN(c1ccc(C(C)(C)C(N)=O)cc1)C2=O [Example 3I, 2-[4-(4-amino-2-methoxy-5-oxo-7,8-dihydropyrido[4,3-d]pyrimidin-6(5H)-yl)phenyl]-2-methylpropanamide] | 52.8 nM
COc1nc(N)c2c(n1)CCN(c1ccc(C(C)(C)c3ncnn3C)cc1)C2=O [Example 3K, 4-amino-2-methoxy-6-{4-[1-methyl-1-(1-methyl-1H-1,2,4-triazol-5-yl)ethyl]phenyl}-7,8-dihydropyrido[4,3-d]pyrimidin-5(6H)-one] | 795 nM
COc1nc(N)c2c(n1)CCN(c1ccc(C(C)(C)c3ncn[nH]3)cc1)C2=O [Example 3N] | 78.5 nM
COc1nc(N)c2c(n1)CCN(c1ccc(C(C)(C)C#N)cc1)C2=O [Example 3O, 2-[4-(4-amino-2-methoxy-5-oxo-7,8-dihydropyrido[4,3-d]pyrimidin-6(5H)-yl)phenyl]-2-methylpropanenitrile] | 88.3 nM
COc1nc(N)c2c(n1)CCN(c1ccc(C(C)(C)c3nnn[nH]3)cc1)C2=O [Example 3P, 4-amino-2-methoxy-6-{4-[1-methyl-1-(1H-tetrazol-5-yl)ethyl]phenyl}-7,8-dihydropyrido[4,3-d]pyrimidin-5(6H)-one] | 20.9 nM
COc1nc(N)c2c(n1)CCN(c1ccc(C(C)(C)CNC(C)=O)cc1)C2=O [Example 3U, N-{2-[4-(4-amino-2-methoxy-5-oxo-7,8-dihydropyrido[4,3-d]pyrimidin-6(5H)-yl)phenyl]-2-methylpropyl}acetamide] | 84.3 nM

Second part, the compound after the results:

IC50 | SMILES
873 nM | COc1nc(N)c2c(n1)CCN(c1cccc(C(C)C)c1)C2=O [Example 6B, 4-amino-6-(3-isopropylphenyl)-2-methoxy-7,8-dihydropyrido[4,3-d]pyrimidin-5(6H)-one]
37.7 nM | COc1nc(N)c2c(n1)CCN(c1cccc(C(C)(C)C)c1)C2=O [Example 6C, 4-amino-6-(3-tert-butylphenyl)-2-methoxy-7,8-dihydropyrido[4,3-d]pyrimidin-5(6H)-one]
899 nM | CCOc1nc(N)c2c(n1)CCN(c1ccc(C(C)(C)C)cc1)C2=O [Example 6D, 4-amino-6-(4-tert-butylphenyl)-2-ethoxy-7,8-dihydropyrido[4,3-d]pyrimidin-5(6H)-one]
329 nM | COc1nc(N)c2c(n1)CCN(c1ccc(C(F)(F)F)cc1)C2=O [Example 6F, 4-amino-2-methoxy-6-[4-(trifluoromethyl)phenyl]-7,8-dihydropyrido[4,3-d]pyrimidin-5(6H)-one]
19.8 nM | COc1nc(N)c2c(n1)CCN(c1ccc(C(C)C)cc1F)C2=O [Example 6G, 4-amino-6-(2-fluoro-4-isopropylphenyl)-2-methoxy-7,8-dihydropyrido[4,3-d]pyrimidin-5(6H)-one]
12.6 nM | COc1nc(N)c2c(n1)CCN(c1ccc(C(C)(C)C)c(F)c1)C2=O [Example 6H, 4-amino-6-(4-tert-butyl-3-fluorophenyl)-2-methoxy-7,8-dihydropyrido[4,3-d]pyrimidin-5(6H)-one]
4.9 nM | COc1nc(N)c2c(n1)CCN(c1ccc(C(C)(C)C)cc1F)C2=O [Example 6I, 4-amino-6-(4-tert-butyl-2-fluorophenyl)-2-methoxy-7,8-dihydropyrido[4,3-d]pyrimidin-5(6H)-one]
256 nM | COc1nc(N)c2c(n1)CCN(c1ccc3c(c1)N(C)C(=O)C3(C)C)C2=O [Example 6J, 4-amino-2-methoxy-6-(1,3,3-trimethyl-2-oxo-2,3-dihydro-1H-indol-6-yl)-7,8-dihydropyrido[4,3-d]pyrimidin-5(6H)-one]
32.7 nM | COc1nc(N)c2c(n1)CCN(c1ccc(C(C)(C)C(F)(F)F)cc1)C2=O [Example 6K, 4-amino-2-methoxy-6-[4-(2,2,2-trifluoro-1,1-dimethylethyl)phenyl]-7,8-dihydropyrido[4,3-d]pyrimidin-5(6H)-one]
38.7 nM | COc1nc(N)c2c(n1)CCN(c1ccc([C@H]3CC[C@H](Cc4nc(C)no4)CC3)c(F)c1)C2=O [Example 7E, 4-amino-6-(3-fluoro-4-{trans-4-[(3-methyl-1,2,4-oxadiazol-5-yl)methyl]cyclohexyl}phenyl)-2-methoxy-7,8-dihydropyrido[4,3-d]pyrimidin-5(6H)-one]
1570 nM | COc1nc(N)c2c(n1)CCN(c1ccc(C(C)(C)NC(C)=O)cc1)C2=O [Example 8A, N-{1-[4-(4-amino-2-methoxy-5-oxo-7,8-dihydropyrido[4,3-d]pyrimidin-6(5H)-yl)phenyl]-1-methylethyl}acetamide]
68.9 nM | COc1nc(N)c2c(n1)CCN(c1ccc(Cl)c(Cl)c1)C2=O [Example 9A, 4-amino-6-(3,4-dichlorophenyl)-2-methoxy-7,8-dihydropyrido[4,3-d]pyrimidin-5(6H)-one]
104 nM | COc1nc(N)c2c(n1)CCN(c1ccc3c(c1)OCCO3)C2=O [Example 9B, 4-amino-6-(2,3-dihydro-1,4-benzodioxin-6-yl)-2-methoxy-7,8-dihydropyrido[4,3-d]pyrimidin-5(6H)-one]
594 nM | COc1nc(N)c2c(n1)CCN(c1ccccc1)C2=O [Example 9C, 4-amino-2-methoxy-6-phenyl-7,8-dihydropyrido[4,3-d]pyrimidin-5(6H)-one]
101 nM | COc1nc(N)c2c(n1)CCN(c1ccc(Cl)c(F)c1)C2=O [Example 9D, 4-amino-6-(4-chloro-3-fluorophenyl)-2-methoxy-7,8-dihydropyrido[4,3-d]pyrimidin-5(6H)-one]
747 nM | COc1nc(N)c2c(n1)CCN(c1ccc(Cl)cc1)C2=O [Example 9F, 4-amino-6-(4-chlorophenyl)-2-methoxy-7,8-dihydropyrido[4,3-d]pyrimidin-5(6H)-one]
102 nM | COc1nc(N)c2c(n1)CCN(c1ccc(OC(C)C)cc1)C2=O [Example 9G, 4-amino-6-(4-isopropoxyphenyl)-2-methoxy-7,8-dihydropyrido[4,3-d]pyrimidin-5(6H)-one]
